Key:
Format in all cases: in vivo
Avena fatua = assay: Test Example 5: herbicidal effect by foliage application, plastic box (symbol I); conditions: 320 g/ha, 3 weeks after application
Procedure, shortened: (§1)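 Seeds were sown in sterilized diluvial soil, covered with about 1.5 cm of soil and grown 14 days in a greenhouse at 25° C. to 30° C. An emulsifiable formulation diluted in water to a set rate was sprayed over foliage, and injury was scored 3 weeks later.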

Stellaria media [1] = assay: Test Example 5: herbicidal effect by foliage application, plastic box (symbol P); conditions: 320 g/ha, 3 weeks after application
Procedure, shortened: as §1

Galium spurium = assay: Test Example 4: herbicidal effect by soil treatment (symbol Q); conditions: for Q: Galium spurium, herbicidal effect grade: 320 g/ha
Procedure, shortened: (§2)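 Seeds were sown in sterilized diluvial soil, covered with about 1.5 cm of soil, and the soil surface was sprayed with a water-diluted emulsion of the compound at a predetermined rate. Plants grew in a greenhouse at 25° C. to 30° C.; effects were scored visually 3 weeks after application.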

Monochoria vaginalis = assay: Test Example 2: herbicidal activity, application during weed generation in submerged conditions (symbol C); conditions: Table 23; application herbicide amount 320 g/ha; grade 0-5 by criteria of Test Example 1
Procedure, shortened: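 Steps: fill pots with alluvial soil; add water to 4 cm depth; co-sow the three weeds; grow at 25° C. to 30° C. under glass; at 1–2 leaves, dose the floodwater with diluted emulsion; rate damage visually after 3 weeks.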

transplanted rice plant = assay: Test Example 1: effect on crop, application before weed generation in submerged conditions (symbol a); conditions: application herbicide amount 320 g/ha
Procedure, shortened: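 Alluvial soil pots flooded to 4 cm water, sown with Echinochloa oryzacola, Scirpus juncoides and Monochoria vaginalis, then transplanted with 2.5 leaf stage rice seedlings; pre-emergence application. Greenhouse 25° C. to 30° C.; scored 0–5 by herbicidal ratio 3 weeks after application.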

rice = assay: Test Example 4: effect on crop by soil treatment (symbol b); conditions: for b: directly sowed rice plant, effect grade on crop: 320 g/ha
Procedure, shortened: (§3)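 Grown at 25° C. to 30° C. in a greenhouse, the crops came from seed sown spot-wise in sterilized diluvial soil under roughly 1.5 cm of covering soil.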

Digitaria ciliaris = assay: Test Example 5: herbicidal effect by foliage application, plastic box (symbol F); conditions: 320 g/ha, 3 weeks after application
Procedure, shortened: as §1

Amaranthus retroflexus = assay: Test Example 4: herbicidal effect by soil treatment (symbol N); conditions: for N: Amaranthus retroflexus, herbicidal effect grade: 320 g/ha
Procedure, shortened: as §2

rice plant = assay: Test Example 5: effect on crop by foliage application, plastic box (symbol b); conditions: 320 g/ha, 3 weeks after application
Procedure, shortened: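 Box culture: sterile diluvial soil, seeds spot-sown, ~1.5 cm cover, raised under glass at 25–30° C.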

Stellaria media [2] = assay: Test Example 4: herbicidal effect by soil treatment (symbol P); conditions: for P: Stellaria media, herbicidal effect grade: 320 g/ha
Procedure, shortened: as §2

Abutilon theophrasti = assay: Test Example 5: herbicidal effect by foliage application, plastic box (symbol M); conditions: 320 g/ha, 3 weeks after application
Procedure, shortened: as §1

[3] = test system: Echinochloa crus-galli var. crus-galli; assay: Test Example 4: herbicidal effect by soil treatment (symbol H); conditions: for H: Echinochloa crus-galli var. crus-galli, herbicidal effect grade: 320 g/ha
Procedure, shortened: as §2

beet = assay: Test Example 4: effect on crop by soil treatment (symbol f); conditions: for f: beet, effect grade on crop: 320 g/ha
Procedure, shortened: as §3

Setaria viridis = assay: Test Example 5: herbicidal effect by foliage application, plastic box (symbol G); conditions: 320 g/ha, 3 weeks after application
Procedure, shortened: as §1

[4] = application herbicide amount 320 g/ha

Compound | I: Avena fatua, herbicidal effect (criteria 0-5) (Avena fatua) | P: Stellaria media, herbicidal effect (criteria 0-5) (Stellaria media [1]) | Q: Galium spurium, herbicidal effect grade (Galium spurium) | Herbicidal effect grade, C: Monochoria vaginalis (Monochoria vaginalis) | Effect grade on crop, a: transplanted rice plant (transplanted rice plant) | b: directly sowed rice plant, effect grade on crop (rice) | F: Digitaria ciliaris, herbicidal effect (criteria 0-5) (Digitaria ciliaris) | N: Amaranthus retroflexus, herbicidal effect grade (Amaranthus retroflexus) | b: directly sowed rice plant, effect on crop (criteria 0-5) (rice plant) | P: Stellaria media, herbicidal effect grade (Stellaria media [2]) | M: Abutilon theophrasti, herbicidal effect (criteria 0-5) (Abutilon theophrasti) | H: Echinochloa crus-galli var. crus-galli, herbicidal effect grade [3] | f: beet, effect grade on crop (beet) | G: Setaria viridis, herbicidal effect (criteria 0-5) (Setaria viridis) | I: Avena fatua, herbicidal effect grade (Avena fatua) | F: Digitaria ciliaris, herbicidal effect grade (Digitaria ciliaris) | b: directly sowed rice plant, effect on crop grade (rice plant) | M: Abutilon theophrasti, herbicidal effect grade (Abutilon theophrasti) | G: Setaria viridis, herbicidal effect grade (Setaria viridis) | further results
CCC(Oc1ccc2ncc(Br)cc2c1)C(=O)OC1=C(c2c(C)cc(C)cc2C)C(=O)C(CC(C)=NOC)C1 (centres unmarked) [1-140] | 5 (Herbicidal ratio of 90% or more (almost completely withered)) | 3 (Herbicidal ratio of 40% or higher and lower than 70%) | 0 (Herbicidal ratio of 5% or lower (almost no effect)) | 3 (Herbicidal ratio of 40% or higher and lower than 70%) | 5 (Herbicidal ratio of 90% or more (almost completely withered)) | 5 (Herbicidal ratio of 90% or more (almost completely withered)) | 5 (Herbicidal ratio of 90% or more (almost completely withered)) | 5 (Herbicidal ratio of 90% or more (almost completely withered)) | 5 (Herbicidal ratio of 90% or more (almost completely withered)) | 0 (Herbicidal ratio of 5% or lower (almost no effect)) | 4 (Herbicidal ratio of 70% or higher and lower than 90%) | 5 (Herbicidal ratio of 90% or more (almost completely withered)) | 0 (Herbicidal ratio of 5% or lower (almost no effect)) | 5 (Herbicidal ratio of 90% or more (almost completely withered)) | – | – | – | – | – | –
CON=C(C)CC1C(O)=C(c2c(C)cc(C)cc2C)C(=O)C1C (mixture of isomers) [12-002] | – | – | – | 1 (Herbicidal ratio of 5% or higher and lower than 20%) | – | – | – | – | – | – | – | – | – | – | 5 (Herbicidal ratio of 90% or more (almost completely withered)) | 5 (Herbicidal ratio of 90% or more (almost completely withered)) | 5 (Herbicidal ratio of 90% or more (almost completely withered)) | 1 (Herbicidal ratio of 5% or higher and lower than 20%) | 5 (Herbicidal ratio of 90% or more (almost completely withered)) | P: Stellaria media, herbicidal effect grade (Stellaria media [1]): 4 (Herbicidal ratio of 70% or higher and lower than 90%); Herbicidal effect grade, Q: Galium spurium (Galium spurium; [4]): 0 (Herbicidal ratio of 5% or lower (almost no effect)); a (transplanted rice plant) effect on crop grade (transplanted rice plant): 3 (Herbicidal ratio of 40% or higher and lower than 70%); Effect on crop grade, b: directly sowed rice plant (rice; [4]): 4 (Herbicidal ratio of 70% or higher and lower than 90%); Herbicidal effect grade, N: Amaranthus retroflexus (Amaranthus retroflexus; [4]): 0 (Herbicidal ratio of 5% or lower (almost no effect)); Herbicidal effect grade, P: Stellaria media (Stellaria media [2]; [4]): 0 (Herbicidal ratio of 5% or lower (almost no effect)); Herbicidal effect grade, H: Echinochloa crus-galli var. crus-galli [3, 4]: 5 (Herbicidal ratio of 90% or more (almost completely withered)); Effect on crop grade, f: beet (beet; [4]): 0 (Herbicidal ratio of 5% or lower (almost no effect))
CON=C(C)CC1CC(OC(=O)c2nc(C)sc2C)=C(c2c(C)cc(C)cc2C)C1=O (centres unmarked) [1-101] | 5 (Herbicidal ratio of 90% or more (almost completely withered)) | 3 (Herbicidal ratio of 40% or higher and lower than 70%) | 0 (Herbicidal ratio of 5% or lower (almost no effect)) | 2 (Herbicidal ratio of 20% or higher and lower than 40%) | 5 (Herbicidal ratio of 90% or more (almost completely withered)) | 5 (Herbicidal ratio of 90% or more (almost completely withered)) | 5 (Herbicidal ratio of 90% or more (almost completely withered)) | 3 (Herbicidal ratio of 40% or higher and lower than 70%) | 5 (Herbicidal ratio of 90% or more (almost completely withered)) | 0 (Herbicidal ratio of 5% or lower (almost no effect)) | 5 (Herbicidal ratio of 90% or more (almost completely withered)) | 5 (Herbicidal ratio of 90% or more (almost completely withered)) | 3 (Herbicidal ratio of 40% or higher and lower than 70%) | 5 (Herbicidal ratio of 90% or more (almost completely withered)) | – | – | – | – | – | –
CC(CC1CC(O)=C(c2c(C)cc(C)cc2C)C1=O)=NOCc1ccc(Cl)cc1 (centres unmarked) [1-137] | 5 (Herbicidal ratio of 90% or more (almost completely withered)) | 0 (Herbicidal ratio of 5% or lower (almost no effect)) | 0 (Herbicidal ratio of 5% or lower (almost no effect)) | 3 (Herbicidal ratio of 40% or higher and lower than 70%) | 5 (Herbicidal ratio of 90% or more (almost completely withered)) | 5 (Herbicidal ratio of 90% or more (almost completely withered)) | 5 (Herbicidal ratio of 90% or more (almost completely withered)) | – | 5 (Herbicidal ratio of 90% or more (almost completely withered)) | 0 (Herbicidal ratio of 5% or lower (almost no effect)) | 4 (Herbicidal ratio of 70% or higher and lower than 90%) | 5 (Herbicidal ratio of 90% or more (almost completely withered)) | 0 (Herbicidal ratio of 5% or lower (almost no effect)) | 5 (Herbicidal ratio of 90% or more (almost completely withered)) | – | – | – | – | – | –
CON=C(C)CC1CC(OC(=O)C(C)(C)C)=C(c2c(C)cc(C)cc2C)C1=O (centres unmarked) [1-004, 2-mesityl-4-{2-(methoxyimino)propyl}-3-oxocyclopent-1-en-1-yl pivalate] | – | – | – | 4 (Herbicidal ratio of 70% or higher and lower than 90%) | 5 (Herbicidal ratio of 90% or more (almost completely withered)) | – | – | – | – | – | – | – | – | – | 5 (Herbicidal ratio of 90% or more (almost completely withered)) | 5 (Herbicidal ratio of 90% or more (almost completely withered)) | 5 (Herbicidal ratio of 90% or more (almost completely withered)) | 4 (Herbicidal ratio of 70% or higher and lower than 90%) | 5 (Herbicidal ratio of 90% or more (almost completely withered)) | Q (Galium spurium) herbicidal effect grade (Galium spurium; [4]): 0 (Herbicidal ratio of 5% or lower (almost no effect)); b (directly sowed rice plant) effect on crop grade (rice; [4]): 5 (Herbicidal ratio of 90% or more (almost completely withered)); N (Amaranthus retroflexus) herbicidal effect grade (Amaranthus retroflexus; [4]): 5 (Herbicidal ratio of 90% or more (almost completely withered)); P (Stellaria media) herbicidal effect grade (Stellaria media [2]; [4]): 0 (Herbicidal ratio of 5% or lower (almost no effect)); H (Echinochloa crus-galli var. crus-galli) herbicidal effect grade [3, 4]: 5 (Herbicidal ratio of 90% or more (almost completely withered)); f (beet) effect on crop grade (beet; [4]): 4 (Herbicidal ratio of 70% or higher and lower than 90%)

— US11000033B2, “Ketone or oxime compound, and herbicide” (NISSAN CHEMICAL CORPORATION, priority 2014, dated 2021)
